Measured values published in patent US6503881B2 (priority 1996, dated 2003).
≈ marks a conversion by molar mass, not a printed value. Read-outs that look alike come from different tables or passages of the source. Peptide text beside a SMILES is read from it.

Tests used:
[1] = tested on: inherently resistant microorganisms
[2] = tested on: microorganisms with acquired resistance
[3] = tested on: bacterial isolates; details: for FIC: Tobramycin + peptide; for PIC: with Gentamicin
[4] = tested on: microorganisms with acquired resistance; experiment: microbe, parasite or virus in culture; details: Staphylococcus haemolyticus, pair Ampicillin / MBI 26
[5] = tested on: bacteria
[6] = S. maltophilia SMA018, pair Amikacin / MBI 21A2
[7] = S. aureus SA25 (Ciprofloxacin section)
[8] = S. maltophilia SMA018, pair Amikacin / MBI 11B16CN
[9] = S. maltophilia SMA022, pair Amikacin / MBI 11B16CN

KKWWRRALQGLKTAGPAIQSVLNK [MBI 21A2]
MIC Alone [1, 6]: 16 µg/mL
MIC in combination [1, 6]: 8 µg/mL
acquired resistance of S. aureus to piperacillin and ciprofloxacin ([2]; antibiotic agents combined with the peptide): overcome

R L A R I V V I R V A R [REWH 53A5CN]
Peptide MIC + Tobramycin ([3]; S. aureus SA014 MRSA): 8 µg/mL
Peptide MIC Alone ([3]; S. aureus SA014 MRSA): 16 µg/mL
Tobramycin MIC + Peptide ([3]; S. aureus SA014 MRSA): 0.125 µg/mL
Peptide MIC + Tobramycin ([3]; S. maltophilia SMA029): 16 µg/mL
Peptide MIC Alone ([3]; S. maltophilia SMA029): >128 µg/mL
Tobramycin MIC + Peptide ([3]; S. maltophilia SMA029): 4 µg/mL
Peptide MIC + Tobramycin ([3]; S. maltophilia SMA030): 32 µg/mL
Peptide MIC Alone ([3]; S. maltophilia SMA030): >128 µg/mL
Tobramycin MIC + Peptide ([3]; S. maltophilia SMA030): 0.25 µg/mL
FIC ([3]; S. aureus SA014 MRSA): 0.50
FIC ([3]; S. maltophilia SMA029): 0.08
FIC ([3]; S. maltophilia SMA030): 0.13
Peptide MIC + Tobramycin ([2]; S. maltophilia SMA029): 32 µg/mL
Tobramycin MIC + Peptide ([2]; S. maltophilia SMA029): 0.25 µg/mL
Peptide MIC Alone ([2]; S. maltophilia SMA029 (7. Tobramycin)): >128 µg/mL
Peptide MIC + Tobramycin ([2]; S. maltophilia SMA030): 32 µg/mL
Tobramycin MIC + Peptide ([2]; S. maltophilia SMA030): 0.25 µg/mL
Peptide MIC Alone ([2]; S. maltophilia SMA030 (7. Tobramycin)): >128 µg/mL
FIC ([2]; peptide + Tobramycin, S. maltophilia SMA029): 0.13
FIC ([2]; peptide + Tobramycin, S. maltophilia SMA030): 0.13

KWKSFIKKLTSAAKKVLTTGLPALIS [MBI 29A3]
Peptide MI Alone ([3]; S. aureus SA10 (Ciprofloxacin section)): 2 µg/mL
Peptide MI Alone [3, 7]: 1 µg/mL
PIC ([3]; S. maltophilia SMA019): 0.31
PIC ([3]; S. maltophilia SMA021): 0.31
MIC in combination ([1]; S. maltophilia SMA063, pair Amikacin / MBI 29A3): 4 µg/mL
MIC Alone ([1]; SMA036): 64 µg/mL
MIC Alone ([1]; SMA063): 8 µg/mL
Peptide MIC Alone ([2]; EFS014): 1 µg/mL
Peptide MIC Alone ([2]; SA25): 1 µg/mL

CC1(C)S[C@@H]2[C@H](NC(=O)[C@H](N)c3ccccc3)C(=O)N2[C@H]1C(=O)O [Ampicillin]
MIC ([4]; read-out: MIC alone, S. haemolyticus SH8459): 0.5 µg/mL (≈ 1.43 µM)
MIC ([4]; read-out: MIC alone, S. haemolyticus SH8564): 64 µg/mL (≈ 183 µM)
MIC ([4]; read-out: MIC alone, S. haemolyticus SH8575): 0.5 µg/mL (≈ 1.43 µM)
MIC ([4]; read-out: MIC alone, S. haemolyticus SH8578): 0.5 µg/mL (≈ 1.43 µM)

CC[C@H](C)[C@H](NC(=O)[C@H](C)NC(=O)[C@@H]1CCCN1C(=O)CNC(=O)[C@H](C)NC(=O)[C@@H](NC(=O)[C@H](CCCCN)NC(=O)[C@H](CC(C)C)NC(=O)CNC(=O)[C@H](CO)NC(=O)[C@H](CC(C)C)NC(=O)[C@@H](NC(=O)[C@H](CCCNC(=N)N)NC(=O)[C@H](CCCNC(=N)N)NC(=O)[C@H](Cc1c[nH]c2ccccc12)NC(=O)[C@H](Cc1c[nH]c2ccccc12)NC(=O)[C@H](CCCCN)NC(=O)[C@@H](N)CCCCN)C(C)C)[C@@H](C)O)C(=O)N[C@@H](CCC(N)=O)C(=O)N[C@@H](CO)C(=O)N[C@H](C(=O)N[C@@H](CC(C)C)C(=O)N[C@@H](CC(N)=O)C(=O)N[C@@H](CCCCN)C(=O)O)C(C)C [MBI 21A1, KKWWRRVLSGLKTAGPAIQSVLNK] (H-KKWWRRVLSGLKTAGPAIQSVLNK-OH; N-terminus and C-terminus assumed)
Peptide MI Alone [3, 7]: 32 µg/mL
MIC in combination ([1]; S. aureus SA014 MRSA, pair Tobramycin / MBI 21A1): 16 µg/mL

Teicoplanin [reference compound]
MIC Alone ([1]; E. gallinarum 97046 VanC, pair Teicoplanin / MBI 26): 1 µg/mL
MIC Alone ([1]; E. gallinarum 97047 VanC, pair Teicoplanin / MBI 26): 8 µg/mL
MIC Alone ([1]; E. gallinarum 97049 VanC, pair Teicoplanin / MBI 26): 2 µg/mL

ILRWPWWPWRRKIMILKKAGS [MBI 11B16CN]
MIC Alone ([1]; A baumannii ABI001, pair Amikacin / MBI 11B16CN): 32 µg/mL
FIC [1, 8]: 0.31
MIC Alone [1, 8]: 32 µg/mL
MIC in combination [1, 8]: 8 µg/mL
FIC [1, 9]: 0.14
MIC Alone [1, 9]: >128 µg/mL
MIC in combination [1, 9]: 32 µg/mL
MIC ([5]; A. calcoaceticus AC002): 4 µg/mL
MIC ([5]; E. cloacae ECL007): >128 µg/mL
MIC ([5]; E. coli ECO005): 16 µg/mL
MIC ([5]; E. faecalis EFS001): 2 µg/mL
MIC ([5]; K. pneumoniae KP001): 16 µg/mL
MIC ([5]; P. aeruginosa PA004): >128 µg/mL
MIC ([5]; S. aureus SA093): 2 µg/mL
MIC ([5]; S. epidermidis SE010): 4 µg/mL
MIC ([5]; S. maltophilia SMA002): 32 µg/mL
MIC ([5]; S. marcescens SMS003): >128 µg/mL

I L R R W P W W P W R R K [MBI 11B1CN]
MIC ([5]; A. calcoaceticus AC001): 32 µg/mL
MIC ([5]; E. cloacae ECL007): >128 µg/mL
MIC ([5]; E. coli ECO003): 8 µg/mL
MIC ([5]; E. faecalis EFS004): 8 µg/mL
MIC ([5]; E. faecium EFM002): 2 µg/mL
MIC ([5]; K. pneumoniae KP002): 64 µg/mL
MIC ([5]; P. aeruginosa PA005): >128 µg/mL
MIC ([5]; S. aureus SA005): 2 µg/mL
MIC ([5]; S. epidermidis SE001): 2 µg/mL
MIC ([5]; S. maltophilia SMA001): 64 µg/mL
MIC ([5]; S. marcescens SMS004): >128 µg/mL
Peptide MIC + Vancomycin ([2]; E. faecalis EFS003): 32 µg/mL
Vancomycin MIC + Peptide ([2]; E. faecalis EFS003): 4 µg/mL
Peptide MIC Alone ([2]; E. faecalis EFS003 (8. Vancomycin)): >128 µg/mL
Peptide MIC + Vancomycin ([2]; E. faecalis EFS006): 0.25 µg/mL
Vancomycin MIC + Peptide ([2]; E. faecalis EFS006): 4 µg/mL
Peptide MIC Alone ([2]; E. faecalis EFS006 (8. Vancomycin)): 128 µg/mL
Peptide MIC + Vancomycin ([2]; E. faecalis EFS010): 8 µg/mL
Vancomycin MIC + Peptide ([2]; E. faecalis EFS010): 1 µg/mL
Peptide MIC Alone ([2]; E. faecalis EFS010 (8. Vancomycin)): 128 µg/mL
Peptide MIC + Vancomycin ([2]; E. faecalis EFS014): 2 µg/mL
Vancomycin MIC + Peptide ([2]; E. faecalis EFS014): 1 µg/mL
Peptide MIC Alone ([2]; E. faecalis EFS014 (8. Vancomycin)): 4 µg/mL
Peptide MIC + Vancomycin ([2]; E. faecium EFM004): 16 µg/mL
Vancomycin MIC + Peptide ([2]; E. faecium EFM004): 0.5 µg/mL
Peptide MIC Alone ([2]; E. faecium EFM004 (8. Vancomycin)): 32 µg/mL
Peptide MIC + Vancomycin ([2]; E. faecium EFM007): 16 µg/mL
Vancomycin MIC + Peptide ([2]; E. faecium EFM007): 4 µg/mL
Peptide MIC Alone ([2]; E. faecium EFM007 (8. Vancomycin)): 64 µg/mL
Peptide MIC + Vancomycin ([2]; E. faecium EFM009): 8 µg/mL
Vancomycin MIC + Peptide ([2]; E. faecium EFM009): 4 µg/mL
Peptide MIC Alone ([2]; E. faecium EFM009 (8. Vancomycin)): 64 µg/mL
FIC ([2]; peptide + Vancomycin, E. faecalis EFS003): 0.63
FIC ([2]; peptide + Vancomycin, E. faecalis EFS006): 0.50
FIC ([2]; peptide + Vancomycin, E. faecalis EFS010): 0.13
FIC ([2]; peptide + Vancomycin, E. faecalis EFS014): 0.51
FIC ([2]; peptide + Vancomycin, E. faecium EFM004): 0.50
FIC ([2]; peptide + Vancomycin, E. faecium EFM007): 0.28
FIC ([2]; peptide + Vancomycin, E. faecium EFM009): 0.25

KWKLFIKKLTPAVKKVLLTGLPALIS [MBI 29F1]
MIC Alone ([1]; S. aureus SA025 MRSA, pair Amikacin / MBI 29F1): 1 µg/mL
